In US9360471B2, “Anti-aging agents and methods to identify them” (priority 2009, dated 2016):
Several values for one entry are separate records, joined by “and”; a condition that tells them apart may be missing. Identical values can stand only once.

Assays:
cdc13-1 cells [1] = experiment: cdc13-1 cell survival after cdc13-1p inactivation, colony formation assay; type: cell-based, budding yeast; settings: for cell death triggered by inactivation of cdc13-1p (colony formation assay): 37° C. about 30 hrs, 6.7 μM PEITC, 5 mM silibinin, 1.25 mM selenite, 2.5 mM genistein, 250 μg/mL GSE, 50 μg/mL EGCG, 3 mg/mL bilberry extract
Experimental: To induce telomere dysfunction, fresh overnight cultures of cdc13-1 were diluted into YEPD medium with the indicated concentrations of glucose or 2-deoxyglucose and incubated at 37° C. for 24 hrs. For colony formation assay, treated cells were then serially diluted 10-fold in H2O and 5 μL was spotted onto regular YEPD plates. The plates were incubated at 24° C. for survived cells to form colonies. The starting number of live-cells was also counted by this colony formation assay. (B) Nitrogen restriction inhibits cell death induced by cdc13-1p inactivation as monitored by a colony formation assay. Cells were incubated in synthetic medium (SC) or SC—N (SC without amino acids and (NH4)2SO4 as nitrogen sources) at 37° C. for 24 hrs. The number of survived cells was counted using colony formation assay as described in 1A. (C-D) Inhibition of TOR by low doses of rapamycin (labeled as Rapa) (below growth inhibition concentration) can prevent cell death induced by cdc13-1p inactivation. Cells were incubated with the indicated concentrations of rapamycin in YEPD medium at 37° C. for 24 hrs. The number of survived cells was measured by the colony formation assay as in 1A. For growth curve, fresh overnight culture was diluted into YEPD medium and incubated at 24° C. in the presence of the indicated concentrations of rapamycin. Cell Density (OD595) was measured at the indicated time points and plotted against the time. (E) Deterioration of growth arrested cdc13-1 cells can be delayed by low dose of rapamycin (1 nM) and glucose restriction (0.5%) as measured by counting surviving cells using the colony formation assay. The data represent an average of three experiments.
(§1) (A) Cells were incubated at 37° C. to inactivated cdc13-1p, in YEPD medium, YEPD+1 nM rapamycin or YEPD with 0.5% glucose. At the indicated time points, an aliquot of cells was taken out and fixed with 50% ethanol at −20° C. for about 4 hrs, and then digested with 0.2 mg/mL RNase A in 50 mM Tris pH 7.6 at 37° C. overnight. The cells were next washed with 50 mM Tris pH 7.6 and treated with 40 μg/mL proteinase K at 55° C. for 2 hrs. After being washed again, cells were stained with 100 μg/mL propidium iodide for 20 min in the dark prior to FACS (Fluorescence activated cell sorter) analysis. […] Cells were incubated at 37° C. for 2 hours first, then diluted with a 37° C.-YEPD medium, YEPD with rapamycin to make a final concentration of 1 nM, or with a 37° C.-medium without glucose to make final 0.5% glucose. The cells were continuously incubated at 37° C. for 22 hrs. Surviving cells were counted using the colony formation assay.
The 6.7 μM PEITC, 5 mM silibinin, 1.25 mM selenite, 2.5 mM genistein, 250 μg/mL grape seed extract (GSE), 50 μg/mL EGCG, and 3 mg/mL bilberry extract (BE) were incubated with cells at 37° C. for about 30 hrs. The cell survival was measured by the colony formation assay at a permissive temperature 24° C.
In addition, limitation of nitrogen by SC—N medium (containing 0.67% yeast nitrogen base in absence of amino acids and (NH4)2SO4, 2% glucose, plus a mixture of 100 mg/L each of histidine, leucine, tryptophan and uracil for this yeast strain) prevented the cell death (FIG. 1B). […] After 60 hrs of incubation at 37° C., cell survival was at least 100-fold more than those without treatment.

[2] = test system: senescent WI-38 cells (human primary fibroblast); experiment: loss of senescent WI-38 cells, β-galactosidase (X-gal) staining; type: cell-based; settings: 56 days in senescence; 50 pM rapamycin, 250 μM AICAR, 20 μg/mL EGCG, 1.6 μg/mL GSE, 20 μg/mL bilberry extract, 1 μM AITC, 12.5 μM 2-deoxyglucose; 3-day-on/7-day-off (AICAR 2-day-on/8-day-off)
Experimental: AICAR and reduced glucose treatment were incubated with cells in a 2-day-on/8-day-off cycle, while the rest of agents were in a 3-day-on/7-day-off cycle. The treatment started at passage 29. The medium was refreshed every 3 days. After 56-days from passage 31 (senescence), the cells were briefly fixed in 2% formaldehyde/0.2% glutaraldehyde and stained with 1 mg/mL 5-bromo-4-chloro-3-indolyl β-D-galactoside (X-gal) (in buffer containing 40 mM citric acid/sodium phosphate, pH 6.0, 5 mM potassium ferrocyanide, 5 mM potassium ferricyanide, 150 mM NaCl, and 2 mM MgCl2) at 37° C. for 18 hrs for the senescence marker, cellular β-galactosidase activity (blue in color picture and dark grey in black/white picture). Surviving senescent cells were viewed under a microscope.
This invention discloses that CR or rapamycin also prolongs senescence and prevents cell death induced by telomere dysfunction in human cells. Primary human embryonic lung fibroblasts WI-38 were used. […] Cells at passage 29 were treated with 50 pM rapamycin. The treatment was on a 10-day cycle of 3-day with and 7-day without rapamycin (also termed as 3-day-on/7-day-off cycle). […] Due to increased cytosol β-galactosidase activity, senescent cells are stained a blue color (shown as dark grey in black/white picture). […] Rapamycin didn't transform cells since the senescence marker was still present and cell growth was not observed.

human lymphoblastoid L40 = experiment: mitochondrial mass in human lymphoblastoid L40, MitoTracker Green FM and FACS; type: cell-based; settings: for mitochondrial mass: 2-day treatment, 10 μM LY294002, 2 μM DATS, 1 μM BITC, 1 μM PITC, 2 μg/mL resveratrol, 0.03 μM lycopene, 6.7 μM PEITC, 5 mM silibinin, 1.25 mM selenite, 2.5 mM genistein, 250 μg/mL GSE, 50 μg/mL EGCG, 3 mg/mL bilberry extract, 1 μM AITC, 50 pM rapamycin, 250 μM AICAR
Description: Mitochondrial mass was monitored by staining the 60% Ethanol-fixed cells with MitoTracker Green FM prior to FACS analysis.

NIH3T3 cells = experiment: mitochondrial mass in NIH3T3 cells treated with TPA; type: cell-based, mouse; settings: 10 μM TPA, two days
Experimental: NIH3T3 cells were incubated in DMEM medium (DMEM with 10% FCS, 100 units/mL penicillin, 100 μg/mL streptomycin and 2 mM glutamine) in the presence of control DMSO, 10 μM TPA, 1 nM rapamycin, 10 μM TPA+1 nM rapamycin, 40 μM AICAR, or 10 μM TPA+40 μM AICAR at 37° C. in a humidified atmosphere consisting of 95% air and 5% CO2 for two days. Cells were then harvested by trypsin and fixed by 60% ethanol. The cells were stained with MitoTracker Greeen FM in darkness for 30 min prior to FACS analysis. The data represents the average of a triplica-experiment.

marine models = marine models (Calvert 2008); cited from earlier work
cdc13-1 cells [3] = experiment: DNA content / cell cycle FACS analysis after cdc13-1p inactivation; type: cell-based, budding yeast; settings: rapamycin 1 nM in YEPD, 37° C. for 2 hrs
Experimental: as §1

WI-38 cells = experiment: growth and population doubling of WI-38 cells; type: cell-based, human; settings: 25 pM rapamycin; without rapamycin 5.18 or 5.12
Experimental: (A) WI-38 cells were treated with the indicated concentrations of rapamycin as in FIG. 7. The treatment started at passage 29. Cells entered senescence at passage 31. After 65-days in senescence, surviving cells were measured by MTT (3-(4,5-dimethylthiazol-2-yl)-2,5-diphenyltetrazolium bromide, a tetrazole) staining. The purple color of MTT generated by mitochondrial reductase was read in 570 nm by a microplate reader. The data is a representative of three independent duplica-experiments. (B) The effect of rapamycin on growth of WI-38 cells. Cells were cultured as in FIG. 7. Arrows indicate the time point when rapamycin was added. 25 pM rapamycin has little effect on growth rate, but increases the population doubling (PD) from 5.18 to 6.82. Population doublings were calculated using the following formula: PD=log(Nf/N0)/log 2, where Nf is the final cell number and N0 is the number of initially seeded cells. Data is a representative of two independent duplica-experiments. (C) The low doses of rapamycin increase protein levels of p53, p21 and pRB. WI-38 cells on the 20th day after the last split (senescence) were treated with rapamycin for 18 hrs. Cell lysates were then analyzed by Western blotting using antibodies specifically against p53, p21 or pRB.

With `O=CC[C@@H](O)[C@H](O)[C@H](O)CO` [2-deoxyglucose, reference compound] the “cell death induced by inactivation of cdc13-1p (colony formation assay)” value (cdc13-1 cells [1]; 200 μM added to YEPD with 2% glucose, 37° C. 22 hrs) was “prevented cell death effectively”, the “loss of the senescent WI-38 cells” value [2] was “prevented” and the mitochondria mass (human lymphoblastoid L40; 12.5 μM 2-deoxyglucose) was “increased mitochondria mass”.
With `C=CCN=C=S` [AITC, allyl isothiocyanate] the “loss of the senescent WI-38 cells” value [2] was “prevented” and the mitochondrial mass (human lymphoblastoid L40) was “increased”.
With `O=C(O[C@@H]1Cc2c(O)cc(O)cc2O[C@@H]1c1cc(O)c(O)c(O)c1)c1cc(O)c(O)c(O)c1` [EGCG, Epigallocatechin gallate] the “cell death triggered by inactivation of cdc13-1p (colony formation assay)” value (from here on “cell death triggered by inactivation”) (cdc13-1 cells [1]) was “inhibited cell death”, the “loss of the senescent WI-38 cells” value [2] was “prevented” and the mitochondrial mass (human lymphoblastoid L40) was “increased”.
With `S=C=NCCc1ccccc1` [PEITC, phenethyl isothiocyanate] the “cell death triggered by inactivation” value (cdc13-1 cells [1]) was “inhibited cell death” and the mitochondrial mass (human lymphoblastoid L40) was “increased”.
For `CCCCCCCCCCCCCC(=O)O[C@@H]1[C@@H](C)[C@@]2(O)[C@@H](C=C(CO)C[C@]3(O)C(=O)C(C)=C[C@@H]23)[C@@H]2C(C)(C)[C@]12OC(C)=O` [TPA, 12-O-tetradecanoylphorbol 13-acetate], the “mitochondrial mass in NIH 3T3 cells” value (NIH3T3 cells) was “dramatically decreased the mitochondrial mass”.
For `S=C=NCc1ccccc1` [benzyl isothiocyanate], the mitochondrial mass (human lymphoblastoid L40) was “increased”.
In the case of `C=CCSSSCC=C` [diallyl trisulfide], the mitochondrial mass (human lymphoblastoid L40) is reported as “increased”.
In the case of `O=c1c(-c2ccc(O)cc2)coc2cc(O)cc(O)c12` [genistein], the “cell death triggered by inactivation” value (cdc13-1 cells [1]) is reported as “inhibited cell death” and the mitochondrial mass (human lymphoblastoid L40) is reported as “increased”.
In the case of `CC(C)=CCC/C(C)=C/C=C/C(C)=C/C=C/C(C)=C/C=C/C=C(C)/C=C/C=C(C)/C=C/C=C(\C)CCC=C(C)C` [lycopene], the mitochondrial mass (human lymphoblastoid L40) is reported as “increased”.
For `CN(C)C(=N)N=C(N)N` [metformin], the myocardial infarction (marine models) is given as “can reduce myocardial infarction”.
For `S=C=Nc1ccccc1` [phenyl isothiocyanate], the mitochondrial mass (human lymphoblastoid L40) was “increased”.
For `CO[C@H]1C[C@@H]2CC[C@@H](C)[C@@](O)(O2)C(=O)C(=O)N2CCCC[C@H]2C(=O)O[C@H]([C@H](C)C[C@@H]2CC[C@@H](O)[C@H](OC)C2)CC(=O)[C@H](C)/C=C(\C)[C@@H](O)[C@@H](OC)C(=O)[C@H](C)C[C@H](C)/C=C/C=C/C=C/1C` [rapamycin], the “cell survival compared with those without treatment” value (cdc13-1 cells [1]; low dose of rapamycin (1 nM), after 60 hrs of incubation at 37° C.) was “at least 100 fold”, the “cells entered the G2/M phase of cell cycle” value (cdc13-1 cells [3]) was “more than 95%” and the “population doubling (PD), replication potential” value (WI-38 cells) was 6.8 and 6.82.
In the case of `Oc1ccc(C=Cc2cc(O)cc(O)c2)cc1` [resveratrol], the mitochondrial mass (human lymphoblastoid L40) is reported as “increased”.
For `O=[Se]([O-])[O-].[Na+].[Na+]` [selenite, selenite (Na2SeO3)], the “cell death triggered by inactivation” value (cdc13-1 cells [1]) was “inhibited cell death” and the mitochondrial mass (human lymphoblastoid L40) was “increased”.
